Target: recombinant Human Phosphodiesterase B2 (PDE4B2) (Homo sapiens, UniProt Q07343)
Test: Human Phosphodiesterase B2 Alpha Screen Assay
Type: biochemical
Conditions: cAMP substrate, Alpha Screen cAMP kit, 60 minutes at room temperature
Procedure, shortened: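 Recombinant human PDE4B2 preincubated 15 min at RT with compound in 50 mM Tris pH 7.5, 8.3 mM MgCl2, 1.7 mM EGTA, 0.01% Brij35, then reacted with cAMP for 60 min at RT. Stopped with EDTA; AlphaScreen beads with biotinylated cAMP incubated 5 h in the dark before reading. IC50 from curve fitting.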

Chain of recombinant Human Phosphodiesterase B2 (PDE4B2) (Q07343 1-564 isoform Q07343-2): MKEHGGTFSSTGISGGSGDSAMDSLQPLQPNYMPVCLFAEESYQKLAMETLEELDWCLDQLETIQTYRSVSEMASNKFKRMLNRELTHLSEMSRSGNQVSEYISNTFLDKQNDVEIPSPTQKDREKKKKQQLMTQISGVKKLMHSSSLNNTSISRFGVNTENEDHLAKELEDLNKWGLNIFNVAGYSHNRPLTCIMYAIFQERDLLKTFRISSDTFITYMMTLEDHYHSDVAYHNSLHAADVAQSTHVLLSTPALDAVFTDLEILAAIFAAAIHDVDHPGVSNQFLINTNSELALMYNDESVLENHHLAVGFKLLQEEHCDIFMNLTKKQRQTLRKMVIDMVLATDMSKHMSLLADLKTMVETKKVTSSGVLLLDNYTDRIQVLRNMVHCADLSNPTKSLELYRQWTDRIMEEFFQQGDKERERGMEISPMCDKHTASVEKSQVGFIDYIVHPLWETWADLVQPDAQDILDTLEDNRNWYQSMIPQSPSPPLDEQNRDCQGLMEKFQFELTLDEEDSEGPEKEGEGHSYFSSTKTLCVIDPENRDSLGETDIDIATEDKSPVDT

IC50 [nM] | SMILES
1 | COC(=O)c1cccc(-n2c(=O)n([C@H]3CC[C@@H](NC(=O)c4cn5ccccc5n4)CC3)c(=O)c3cc(F)cnc32)c1 [Example 69, methyl 3-[6-fluoro-3-{cis-4-[(imidazo[1,2-a]pyridin-2-ylcarbonyl)amino]cyclohexyl}-2,4-dioxo-3,4-dihydropyrido[2,3-d]pyrimidin-1(2H)-yl]benzoate]
6.6 | COC(=O)c1cccc(-n2c(=O)n([C@H]3CC[C@@H](NC(=O)C4CC4)CC3)c(=O)c3cc(F)cnc32)c1 [Example 70, methyl 3-[3-{cis-4-[(cyclopropylcarbonyl)amino]cyclohexyl}-6-fluoro-2,4-dioxo-3,4-dihydropyrido[2,3-d]pyrimidin-1(2H)-yl]benzoate]
41.2 | CS(=O)(=O)c1cccc(-n2c(=O)n([C@H]3CC[C@@H](NC(=O)C4CC4)CC3)c(=O)c3cc(F)cnc32)c1 [Example 71, N-{cis-4-[6-fluoro-1-[3-(methylsulfonyl)phenyl]-2,4-dioxo-1,4-dihydropyrido[2,3-d]pyrimidin-3(2H)-yl]cyclohexyl}cyclopropanecarboxamide]
2.3 | Cc1ccc(O)c(C(=O)N[C@H]2CC[C@@H](n3c(=O)c4cc(F)cnc4n(-c4ccc(F)c(F)c4)c3=O)CC2)c1 [Example 72, N-{cis-4-[1-(3,4-difluorophenyl)-6-fluoro-2,4-dioxo-1,4-dihydropyrido[2,3-d]pyrimidin-3(2H)-yl]cyclohexyl}-2-hydroxy-5-methylbenzamide]
62.6 | COC(=O)c1cccc(-n2c(=O)n([C@H]3CC[C@@H](NC(=O)C4CCN(C)CC4)CC3)c(=O)c3cc(F)cnc32)c1 [Example 73, methyl 3-[6-fluoro-3-(cis-4-{[(1-methylpiperidin-4-yl)carbonyl]amino}cyclohexyl)-2,4-dioxo-3,4-dihydropyrido[2,3-d]pyrimidin-1(2H)-yl]benzoate]
5.1 | COC(=O)c1cccc(-n2c(=O)n([C@H]3CC[C@@H](NC(=O)c4ccc(CN(C)C)o4)CC3)c(=O)c3cc(F)cnc32)c1 [Example 74, methyl 3-[3-[cis-4-({5-[(dimethylamino)methyl]-2-furoyl}amino)cyclohexyl]-6-fluoro-2,4-dioxo-3,4-dihydropyrido[2,3-d]pyrimidin-1(2H)-yl]benzoate]
2.6 | COC(=O)c1cccc(-n2c(=O)n([C@H]3CC[C@@H](NC(=O)C4CCCCC4)CC3)c(=O)c3cc(F)cnc32)c1 [Example 75, methyl 3-[3-{cis-4-[(cyclohexylcarbonyl)amino]cyclohexyl}-6-fluoro-2,4-dioxo-3,4-dihydropyrido[2,3-d]pyrimidin-1(2H)-yl]benzoate]
9.5 | O=C(c1n[nH]c2ccccc12)N1CCC(n2c(=O)c3cc(F)cnc3n(-c3ccc(F)c(F)c3)c2=O)CC1 [Example 76, 1-(3,4-difluorophenyl)-6-fluoro-3-[1-(1H-indazol-3-ylcarbonyl)piperidin-4-yl]pyrido[2,3-d]pyrimidine-2,4(1H,3H)-dione]
147 | O=C([C@H](O)c1ccccc1)N1CCC(n2c(=O)c3cc(F)cnc3n(-c3ccc(F)c(F)c3)c2=O)CC1 [Example 77, 1-(3,4-difluorophenyl)-6-fluoro-3-{1-[(2R)-2-hydroxy-2-phenylacetyl]piperidin-4-yl}pyrido[2,3-d]pyrimidine-2,4(1H,3H)-dione]
293 | O=C(c1cc(CO)ccc1O)N1CCC(n2c(=O)c3cc(F)cnc3n(-c3ccc(F)c(F)c3)c2=O)CC1 [Example 78, 1-(3,4-difluorophenyl)-6-fluoro-3-{1-[2-hydroxy-5-(hydroxymethyl)benzoyl]piperidin-4-yl}pyrido[2,3-d]pyrimidine-2,4(1H,3H)-dione]
15.4 | O=C(c1n[nH]c2ccccc12)N1CC[C@@H](n2c(=O)c3cc(F)cnc3n(-c3ccc(F)c(F)c3)c2=O)C1 [Example 79, 1-(3,4-difluorophenyl)-6-fluoro-3-[(3R)-1-(1H-indazol-3-ylcarbonyl)pyrrolidin-3-yl]pyrido[2,3-d]pyrimidine-2,4(1H,3H)-dione]
73.3 | O=C([C@H](O)c1ccccc1)N1CC[C@@H](n2c(=O)c3cc(F)cnc3n(-c3ccc(F)c(F)c3)c2=O)C1 [Example 80, 1-(3,4-difluorophenyl)-6-fluoro-3-{(3R)-1-[(2R)-2-hydroxy-2-phenylacetyl]pyrrolidin-3-yl}pyrido[2,3-d]pyrimidine-2,4(1H,3H)-dione]
8.1 | O=C([C@H](O)C1CCCCC1)N1CC[C@@H](n2c(=O)c3cc(F)cnc3n(-c3ccc(F)c(F)c3)c2=O)C1 [Example 81, 3-{(3R)-1-[(2R)-2-cyclohexyl-2-hydroxyacetyl]pyrrolidin-3-yl}-1-(3,4-difluorophenyl)-6-fluoropyrido[2,3-d]pyrimidine-2,4(1H,3H)-dione]
71.8 | O=C(c1cc(CO)ccc1O)N1CC[C@@H](n2c(=O)c3cc(F)cnc3n(-c3ccc(F)c(F)c3)c2=O)C1 [Example 82, 1-(3,4-difluorophenyl)-6-fluoro-3-{(3R)-1-[2-hydroxy-5-(hydroxymethyl)benzoyl]pyrrolidin-3-yl}pyrido[2,3-d]pyrimidine-2,4(1H,3H)-dione]
9.2 | O=C(c1n[nH]c2ccccc12)N1CC[C@H](n2c(=O)c3cc(F)cnc3n(-c3ccc(F)c(F)c3)c2=O)C1 [Example 83, 1-(3,4-difluorophenyl)-6-fluoro-3-[(3S)-1-(1H-indazol-3-ylcarbonyl)pyrrolidin-3-yl]pyrido[2,3-d]pyrimidine-2,4(1H,3H)-dione]
57.3 | O=C([C@H](O)c1ccccc1)N1CC[C@H](n2c(=O)c3cc(F)cnc3n(-c3ccc(F)c(F)c3)c2=O)C1 [Example 84, 1-(3,4-difluorophenyl)-6-fluoro-3-{(3S)-1-[(2R)-2-hydroxy-2-phenylacetyl]pyrrolidin-3-yl}pyrido[2,3-d]pyrimidine-2,4(1H,3H)-dione]
0.996 | O=C(N[C@H]1CC[C@@H](n2c(=O)c3cc(F)cnc3n(-c3ccc(F)c(F)c3)c2=O)CC1)c1ccc2[nH]ccc2c1 [Example 85, N-{cis-4-[1-(3,4-difluorophenyl)-6-fluoro-2,4-dioxo-1,4-dihydropyrido[2,3-d]pyrimidin-3(2H)-yl]cyclohexyl}-1H-indole-5-carboxamide]
4.13 | O=C(N[C@H]1CC[C@@H](n2c(=O)c3cc(F)cnc3n(-c3ccc(F)c(F)c3)c2=O)CC1)c1cccc([N+](=O)[O-])c1 [Example 86, N-{cis-4-[1-(3,4-difluorophenyl)-6-fluoro-2,4-dioxo-1,4-dihydropyrido[2,3-d]pyrimidin-3(2H)-yl]cyclohexyl}-3-nitrobenzamide]
0.885 | O=C(N[C@H]1CC[C@@H](n2c(=O)c3cc(F)cnc3n(-c3ccc(F)c(F)c3)c2=O)CC1)c1cc2ccccc2[nH]1 [Example 87, N-{cis-4-[1-(3,4-difluorophenyl)-6-fluoro-2,4-dioxo-1,4-dihydropyrido[2,3-d]pyrimidin-3(2H)-yl]cyclohexyl}-1H-indole-2-carboxamide]
3.38 | O=C(N[C@H]1CC[C@@H](n2c(=O)c3cc(F)cnc3n(-c3ccc(F)c(F)c3)c2=O)CC1)c1ccc2[nH]cnc2c1 [Example 88, N-{cis-4-[1-(3,4-difluorophenyl)-6-fluoro-2,4-dioxo-1,4-dihydropyrido[2,3-d]pyrimidin-3(2H)-yl]cyclohexyl}-1H-benzimidazole-5-carboxamide]
10.8 | N#Cc1ccc(C(=O)N[C@H]2CC[C@@H](n3c(=O)c4cc(F)cnc4n(-c4ccc(F)c(F)c4)c3=O)CC2)cc1 [Example 89, 4-cyano-N-{cis-4-[1-(3,4-difluorophenyl)-6-fluoro-2,4-dioxo-1,4-dihydropyrido[2,3-d]pyrimidin-3(2H)-yl]cyclohexyl}benzamide]
6.11 | O=C(N[C@H]1CC[C@@H](n2c(=O)c3cc(F)cnc3n(-c3ccc(F)c(F)c3)c2=O)CC1)c1ccc2[nH]nnc2c1 [Example 90, N-{cis-4-[1-(3,4-difluorophenyl)-6-fluoro-2,4-dioxo-1,4-dihydropyrido[2,3-d]pyrimidin-3(2H)-yl]cyclohexyl}-1H-1,2,3-benzotriazole-5-carboxamide]
2.09 | O=C(N[C@H]1CC[C@@H](n2c(=O)c3cc(F)cnc3n(-c3ccc(F)c(F)c3)c2=O)CC1)c1ccc2ncsc2c1 [Example 91, N-{cis-4-[1-(3,4-difluorophenyl)-6-fluoro-2,4-dioxo-1,4-dihydropyrido[2,3-d]pyrimidin-3(2H)-yl]cyclohexyl}-1,3-benzothiazole-6-carboxamide]
7.83 | CC1=C(C(=O)N[C@H]2CC[C@@H](n3c(=O)c4cc(F)cnc4n(-c4ccc(F)c(F)c4)c3=O)CC2)SC2=NCCCN21 [Example 92, N-{cis-4-[1-(3,4-difluorophenyl)-6-fluoro-2,4-dioxo-1,4-dihydropyrido[2,3-d]pyrimidin-3(2H)-yl]cyclohexyl}-3-methyl-6,7-dihydro-5H-[1,3]thiazolo[3,2-a]pyrimidine-2-carboxamide]
11.7 | O=C(N[C@H]1CC[C@@H](n2c(=O)c3cc(F)cnc3n(-c3ccc(F)c(F)c3)c2=O)CC1)c1csnn1 [Example 93, N-{cis-4-[1-(3,4-difluorophenyl)-6-fluoro-2,4-dioxo-1,4-dihydropyrido[2,3-d]pyrimidin-3(2H)-yl]cyclohexyl}-1,2,3-thiadiazole-4-carboxamide]
5.31 | O=C(N[C@H]1CC[C@@H](n2c(=O)c3cc(F)cnc3n(-c3ccc(F)c(F)c3)c2=O)CC1)c1cn[nH]c1 [Example 94, N-{cis-4-[1-(3,4-difluorophenyl)-6-fluoro-2,4-dioxo-1,4-dihydropyrido[2,3-d]pyrimidin-3(2H)-yl]cyclohexyl}-1H-pyrazole-4-carboxamide]
3.39 | O=C(N[C@H]1CC[C@@H](n2c(=O)c3cc(F)cnc3n(-c3ccc(F)c(F)c3)c2=O)CC1)c1ccsc1 [Example 95, N-{cis-4-[1-(3,4-difluorophenyl)-6-fluoro-2,4-dioxo-1,4-dihydropyrido[2,3-d]pyrimidin-3(2H)-yl]cyclohexyl}thiophene-3-carboxamide]
